Measured values reported in patent US12552790B2, “Positive modulators of the muscarinic acetylcholine receptor M4” (Vanderbilt University, priority 2023, dated 2026).

Test system: amphetamine-induced hyperlocomotion in male Sprague-Dawley rats
Test: Amphetamine-induced hyperlocomotion in rats
Type: in vivo
Conditions: 10 mg/kg oral gavage, rat, amphetamine 0.75 mg/kg s.c.
Experimental: Drugs: d-Amphetamine hemisulfate was obtained from Sigma (St. Louis, MO). Salt-correction was used to determine the correct amount of the d-amphetamine hemisulfate form in milligrams to add to sterile water in order to yield a 0.75 mg/mL solution, which would be dosed at 1 mL/kg body weight of each animal. […] The solutions were formulated so that animals were injected with a volume equal to 10 mL/kg body weight for all compounds. The appropriate amount according to the dosage was mixed in 10% Tween 80 (Sigma) in sterile water. The mixtures were then vortexed and stored in a 39° C. sonication bath for 1 hour, until in a solution or microsuspension (depending on dose).
Animals: Male Sprague-Dawley rats weighing 239-300 grams and averaging 265 g (Harlan, Inc., Indianapolis, IN) were used. They were housed in the animal care facility certified by the American Association for the Accreditation of Laboratory Animal Care (AALAC) under a 12-hour light/dark cycle (lights on: 6 a.m.; lights off: 6 p.m.) and had free access to food and water. The animals used in this experiment were food-deprived the evening before experimentation for oral dosing of compound/vehicle. The experimental protocols performed during the light cycle were approved by the Institutional Animals Care and Use Committee of Vanderbilt University and conformed to the guidelines established by the National Research Council Guide for the Care and Use of Laboratory Animals.
Amphetamine-induced Hyperlocomotion: Male Harlan Sprague Dawley rats were habituated in Smart Open Field locomotor activity test chambers (Hamilton-Kinder, San Diego, CA) with 16×16 photo beams to automatically record locomotor activity. […] They were monitored for an additional 30 minutes and then injected subcutaneously with vehicle or 0.75 mg/kg amphetamine. Animals were then monitored for an additional 60 minutes, for a total of 120 minutes. Data were expressed as changes in ambulation defined as total number of beam breaks per 5 minute interval. Terminal brain and plasma samples were collected at the end of the study for pharmacokinetic analysis.
Data Analysis: Behavioral data were analyzed using a two-way ANOVA with main effects of treatment and time. Post hoc analysis was performed using a Dunnett's t-test with all treatment groups compared to the Vehicle/amphetamine group (VAMP) group using GraphPad Prism V.5.04 (GraphPad Software, San Diego, CA). Data were graphed using GraphPad Prism V.5.04 (GraphPad Software, San Diego, CA). A probability of p≤0.05 was taken as the level of statistical significance. In addition, the total number of beam breaks from the amphetamine administration (65 min) to the end of the study (120 min) was calculated and graphed. Percent Reversal was calculated as follows using Microsoft Excel: In each animal, total ambulation from t=65 to t=120 was summed. The mean of each sum was calculated in the VAMP group. Then, for each animal, Percent Reversal was calculated with the following formula: Percent Reversal=100−{[(total ambulation in each animal from t=65 to t=120)/(mean of each sum from t=65 to t=120 in VAMP group)]*100}. The mean Percent Reversal, as well as the standard error, was calculated for each dose group using GraphPad Prism V5.04.

## Cc1nnc2sc(C(=O)NCc3ccc(S(=O)(=O)C(F)(F)F)cc3)c(N)c2c1C [VU0467154, reference compound]
  percent reversal of amphetamine-induced hyperlocomotion: 56.2%
